Here are results for two compounds from US9452225B2, “GLP-1 prodrugs” (Novo Nordisk A/S, priority 2012, dated 2016).

Data set [1] can be described thus: Pharmacokinetic study in minipigs after i.v. administration. The class given is in vivo, Göttingen minipigs. As to conditions: iv, minipig. As to the method: The purpose of this study is to determine the pharmacokinetic (PK) profile in vivo of a prodrug of the invention (Example 4) and the corresponding parent drug (Example B2.2) after i.v. administration to minipigs, e.g. the prolongation of their time in the body and thereby their time of action. This is done in a PK study, where the terminal half-life of the compound in question is determined. By terminal half-life is generally meant the period of time it takes to halve a certain plasma concentration, measured after the initial distribution phase.
Threefemale Göttingen minipigs, obtained from Ellegaard Göttingen Minipigs (Dalmose, Denmark) approximately 6-8 months of age and weighing approximately 16-21 kg (prodrug pig 16.8 kg, drug pigs 21.3 and 21.1 kg), were used in the studies. The minipigs were housed individually and fed restrictedly once daily with SDS minipig diet (Special Diets Services, Essex, UK). […]
The prodrug of Example 4 and the corresponding drug of Example B2.2 were dissolved in 50 mM sodium phosphate, 145 mM sodium chloride, 0.05% polysorbate 80, pH 7.4 to a suitable concentration (for example, 169.6 nmol/ml for the prodrug). […] Individual plasma concentration-time profiles were analyzed by a non-compartmental model in WinNonlin v. […] Also, the resulting terminal half-lives (harmonic mean/h) were determined, if possible. […]

A short description of data set [2]: Prodrug half-life in vitro, plasma method (minipig heparin plasma). The format is in vitro ADME. As to conditions: minipig heparin plasma 800 μL + 200 μL 200 mM phosphate pH 7.4, 37° C.; UPLC_A, or UPLC_B for compounds marked *; read-out: T½ in plasma (converted). As to the method: (§1) The purpose of this example is to test the in vitro half-lives (T½) of the GLP-1 prodrugs of the invention, in comparison to conceptually different prodrugs. In what follows two in vitro methods are described, viz. a method conducted in buffer, and a method conducted in plasma.
(§2) The half life of the prodrug (T½) was calculated from the slope of a linear fit to the curve of ln(% prodrug (Y)) as a function of time (t), as follows: Y=÷αt+k Math. 1 T½=ln(2)/α Math. 2 Plasma Method Buffer: 200 mM Phosphate, pH 7.4 at 37° C.
NaH2PO4.2H2O (15.61 g, 100 mmol) was dissolved in milliQ water (approximately 450 mL) and adjusted to pH=7.44 at approximately 20° C. with concentrated NaOH (aq) and 1 M NaOH (aq). Water was added to 500.00 mL.
Serum: Minipig Serum, Heparin-Plasma
Fresh blood was tapped from minipig into 9 mL LH lithium heparin Vacuette tubes from Greiner bio-one (catalogue number 455084). After cooling on ice it was centrifuged (10 min, 4° C., 3000 rpm/1942G) and the supernatant isolated and kept at −18° C. before use.
100 nmol of the compound to be tested was dissolved in 200 μL buffer, added to 800 μL plasma (centrifuged), and incubated at 37° C. Samples (50 μL) were drawn at appropriate intervals into 150 μL absolute EtOH. After a short stirring the sample was centrifuged and the supernatant transferred to the UPLC vial (10 μL injection).
The % parent drug compared to prodrug formed as a function of time was evaluated by UPLC, and the half-life calculated, both in the same way as described above under the Buffer method.

The nature of data set [3]: Prodrug half-life in vitro, buffer method. The format is physicochemical. As to conditions: 25 mM phosphate buffer pH 7.4, 37° C., 1.0 mg/mL; UPLC_A, or UPLC_B for compounds marked *; read-out: T½ in buffer (converted). How it is done:
as §1
Buffer: 25 mM Phosphate (Ionic strength: 154 mM, pH 7.4 at 37° C.)
NaH2PO4.2H2O (1.95 g, 12.5 mmol) and NaCl (2.61 g, 44.7 mmol) were dissolved in millipore water (approximately 450 mL) and adjusted to pH=7.44 at approximately 20° C. with concentrated NaOH and 1 M NaOH. Water was added to 500.00 mL.
The compound to be tested was dissolved in buffer to a concentration of 1.0 mg/mL and incubated at 37° C. Samples were taken at adequate intervals and the % parent drug compared to prodrug formed as function of time was evaluated by the UPLC method as referred to in Table 1 by comparing the areas under the curves for the two corresponding peaks. These UPLC methods are described in the general experimental section above (UPLC_A, and UPLC_B).
as §2
The resulting half-lives are set out in Table 1 below. For comparison, the T½ in buffer of native GLP-1(7-37) (His7 variant of SEQ ID NO: 1) was 13 minutes (0.2 hours).

Data set [4] concerns the target T1, human GLP-1 receptor (Homo sapiens, UniProt P43220).
T1 construct: expressed in transfected cells; host or cells: BHK cells, clone FCW467-12A (parent line BHKTS13), membranes
In words: In vitro potency, AlphaScreen cAMP assay on membranes. The class given is biochemical. As to conditions: cAMP formation, membranes of BHK467-12A cells. As to the method: The purpose of this example is to test the activity, or potency, in vitro of, for example, the GLP-1 parent drugs of the prodrugs of the invention.
Purified plasma membranes from a stable transfected cell line, BHK467-12A (tk-ts13), expressing the human GLP-1 receptor were stimulated with the GLP-1 drug in question, and the potency of cAMP production was measured using the AlphaScreen™ cAMP Assay Kit from Perkin Elmer Life Sciences. The basic principle of The AlphaScreen Assay is a competition between endogenous cAMP and exogenously added biotin-cAMP. The capture of cAMP is achieved by using a specific antibody conjugated to acceptor beads.
A stable transfected cell line and a high expressing clone were selected for screening. The cells were grown at 5% CO2 in DMEM, 10% FCS, 1% Pen/Strep (Penicillin/Streptomycin) and preferably 0.5 (alternatively 1.0 mg/ml) of the selection marker G418.
Cells at approximate 80% confluence were washed twice with PBS and harvested with Versene (aqueous solution of the tetrasodium salt of ethylenediaminetetraacetic acid), centrifuged 5 min at 1000 rpm and the supernatant removed. The additional steps were all made on ice. The cell pellet was homogenised by the Ultrathurax for 20-30 s in 10 ml of Buffer 1 (20 mM Na-HEPES, 10 mM EDTA, pH=7.4), centrifuged 15 min at 20,000 rpm and the pellet resuspended in 10 ml of Buffer 2 (20 mM Na-HEPES, 0.1 mM EDTA, pH=7.4). The suspension was homogenised for 20-30 s and centrifuged 15 min at 20,000 rpm. Suspension in Buffer 2, homogenisation and centrifugation was repeated once and the membranes were resuspended in Buffer 2. The protein concentration was determined and the membranes stored at −80° C. until use.
The assay was performed in flat-bottom 96-well plates (Costar cat. no: 3693). The final volume per well was 50 μl.
AlphaScreen cAMP Assay Kit from Perkin Elmer Life Sciences (cat. No: 6760625M); containing Anti-cAMP Acceptor beads (10 U/μl), Streptavidin Donor beads (10 U/μl) and Biotinylated-cAMP (133 U/μl). […]
For orientation: Alpha assays give light when donor and acceptor beads are brought close together.

SMILES strings stand for the structures.

As a reminder, the EC50 is the concentration needed to bring the measured effect to its halfway point. Low values mean an effect from little substance, high ones a need for much substance.

T1 sequence (P43220 24-463): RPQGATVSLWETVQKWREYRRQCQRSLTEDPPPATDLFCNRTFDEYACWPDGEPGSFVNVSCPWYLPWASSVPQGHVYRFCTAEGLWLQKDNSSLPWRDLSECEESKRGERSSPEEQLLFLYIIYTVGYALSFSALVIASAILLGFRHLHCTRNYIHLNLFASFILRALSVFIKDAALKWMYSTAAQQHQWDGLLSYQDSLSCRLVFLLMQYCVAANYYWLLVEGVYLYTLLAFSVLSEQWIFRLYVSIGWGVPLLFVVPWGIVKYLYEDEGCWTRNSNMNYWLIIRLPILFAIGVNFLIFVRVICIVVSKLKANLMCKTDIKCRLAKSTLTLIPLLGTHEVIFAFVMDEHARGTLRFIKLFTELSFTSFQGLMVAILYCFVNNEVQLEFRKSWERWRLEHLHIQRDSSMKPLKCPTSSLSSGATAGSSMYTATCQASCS

Consider `CC[C@H](C)[C@H](NC)C(=O)N[C@H](C(=O)O[C@@H](Cc1c[nH]cn1)C(=O)N[C@@H](C)C(=O)N[C@@H](CCC(=O)O)C(=O)NCC(=O)N[C@H](C(=O)N[C@@H](Cc1ccccc1)C(=O)N[C@H](C(=O)N[C@@H](CO)C(=O)N[C@@H](CC(=O)O)C(=O)N[C@H](C(=O)N[C@@H](CO)C(=O)N[C@@H](CO)C(=O)N[C@@H](Cc1ccc(O)cc1)C(=O)N[C@@H](CC(C)C)C(=O)N[C@@H](CCC(=O)O)C(=O)NCC(=O)N[C@@H](CCC(N)=O)C(=O)N[C@@H](C)C(=O)N[C@@H](C)C(=O)N[C@@H](CCCCNC(=O)COCCOCCNC(=O)COCCOCCNC(=O)CC[C@H](NC(=O)CCCCCCCCCOc1ccc(C(=O)O)cc1)C(=O)O)C(=O)N[C@@H](CCC(=O)O)C(=O)N[C@@H](Cc1ccccc1)C(=O)N[C@H](C(=O)N[C@@H](C)C(=O)N[C@@H](Cc1c[nH]c2ccccc12)C(=O)N[C@@H](CC(C)C)C(=O)N[C@H](C(=O)N[C@@H](CCCNC(=N)N)C(=O)NCC(=O)N[C@@H](CCCNC(=N)N)C(=O)N[C@@H](CCCCNC(=O)COCCOCCNC(=O)COCCOCCNC(=O)CC[C@H](NC(=O)CCCCCCCCCOc1ccc(C(=O)O)cc1)C(=O)O)C(=O)O)C(C)C)[C@@H](C)CC)C(C)C)[C@@H](C)O)[C@@H](C)O)C(C)C` [Example 4], for which the half-life is 2.83 days in data set [1] (in vivo, prodrug given i.v. 8 nmol/kg, half-life of the released parent drug, estimated from the bell-shaped curve, read-out: apparent terminal half-life of corresponding drug (estimated) (converted)); 1670 min in data set [2]; 2.45 days in data set [3].

For `CC[C@H](C)[C@H](NC(=O)[C@H](Cc1ccccc1)NC(=O)[C@H](CCC(=O)O)NC(=O)[C@H](CCCCNC(=O)COCCOCCNC(=O)COCCOCCNC(=O)CC[C@H](NC(=O)CCCCCCCCCOc1ccc(C(=O)O)cc1)C(=O)O)NC(=O)[C@H](C)NC(=O)[C@H](C)NC(=O)[C@H](CCC(N)=O)NC(=O)CNC(=O)[C@H](CCC(=O)O)NC(=O)[C@H](CC(C)C)NC(=O)[C@H](Cc1ccc(O)cc1)NC(=O)[C@H](CO)NC(=O)[C@H](CO)NC(=O)[C@@H](NC(=O)[C@H](CC(=O)O)NC(=O)[C@H](CO)NC(=O)[C@@H](NC(=O)[C@H](Cc1ccccc1)NC(=O)[C@@H](NC(=O)CNC(=O)[C@H](CCC(=O)O)NC(=O)[C@H](C)NC(=O)[C@@H](O)Cc1c[nH]cn1)[C@@H](C)O)[C@@H](C)O)C(C)C)C(=O)N[C@@H](C)C(=O)N[C@@H](Cc1c[nH]c2ccccc12)C(=O)N[C@@H](CC(C)C)C(=O)N[C@H](C(=O)N[C@@H](CCCNC(=N)N)C(=O)NCC(=O)N[C@@H](CCCNC(=N)N)C(=O)N[C@@H](CCCCNC(=O)COCCOCCNC(=O)COCCOCCNC(=O)CC[C@H](NC(=O)CCCCCCCCCOc1ccc(C(=O)O)cc1)C(=O)O)C(=O)O)C(C)C` [Example B2.2], it took 460 pM to reach a half-maximal effect in data set [4] (EC50). Further, the half-life in data set [1] (female, Göttingen, plasma, parent drug given i.v. 3 nmol/kg, read-out: Terminal half-life (harmonic mean/h) (converted)) was 1.54 days.
